Laboratory results reported in PMC13598332, “Selective activation of tetrodotoxin-sensitive sodium channels by AaH-II drives arrhythmogenic late Na^+ current in the heart” (Europace, 2026).

Experiments:
[1] = target: hNav1.2 (Homo sapiens, UniProt Q99250); assay type: cell-based
[2] = target: hNav1.3 (Homo sapiens, UniProt Q9NY46); assay type: cell-based
[3] = target: hNav1.4 (Homo sapiens, UniProt P35499); assay type: cell-based
[4] = target: hNav1.7 (Homo sapiens, UniProt Q15858); assay type: cell-based
[5] = target: hNav1.5 (Homo sapiens, UniProt Q14524); assay: Manual patch-clamp on HEK293-Nav1.5; assay type: cell-based; settings: 10 nM; HP −120 mV, 1000-ms step to −20 mV, RT
Description: Whole-cell Nav currents were recorded at RT from HEK293 stably expressing hNav1.5, using an Axopatch 200A amplifier (Axon Instruments, Molecular Devices). Voltage-clamp protocols were applied using the pClamp 10.4 software suite (Axon Instruments), interfaced with the electrophysiological setup through a Digidata 1440A digitizer (Axon Instruments). Patch-clamp pipettes were fabricated from borosilicate glass capillaries (outer diameter: 1.5 mm; inner diameter: 0.86 mm; Sutter Instrument) using a P-97 micropipette puller (Sutter Instrument), yielding a pipette resistance of 0.8–1.5 MΩ when filled with the internal solution. The internal solution contained (in mM) 10 CsCl, 110 CsF, 10 NaCl, 10 EGTA, and 10 HEPES (pH 7.2, osmolarity 280 mOsm). The external solution contained (in mM) 100 NaCl, 4 KCl, 40 NMDG, 2 CaCl2, 1 MgCl2, 5 glucose, and 10 HEPES (pH 7.4, osmolarity 298 mOsm). All chemicals were purchased from Sigma-Aldrich. After 80% series resistance compensation, 1000-ms depolarizing steps to −20 mV were applied from a HP of −120 mV to record sodium current under control conditions, following application of 10 nM AaH-II*. Sweeps were delivered every 5 s. Current signals were filtered at 10 kHz before digitization at 50 kHz and storage. […] Data were compiled and analysed using ClampFit 11.2 (Axon Instruments), Microsoft Excel, and GraphPad Software Prism.

[6] = system: isolated rat heart; assay: Ex vivo cardiac electrophysiological recordings (Langendorff, MEA); settings: for increase in repolarization area of ventricular local field potential: mean ± SEM
Description: Eleven-week-old Wistar-Han rats were first heparinized (heparin sodium, 0.5 U/g i.p.) and then euthanized by i.p. injection of 140 mg/kg pentobarbital (Euthasol®). Hearts were quickly excised and immersed in a cold modified Krebs-Henseleit solution (in mM): 116 NaCl, 5 KCl, 1.1 MgSO4, 7 H2O, 0.35 NaH2PO4, 27 NaHCO3, 10 glucose, and pH 7.4. The aorta was cannulated, and the hearts were perfused on a Langendorff system with warm (36.5–37.5°C) and oxygenated (95% O2/5% CO2) Krebs-Henseleit solution supplemented with 1.8 mM CaCl2, 1 mM lactate, and 0.2 mM pyruvate (control solution) at a constant flow rate of 12 mL/min. Once connected to the Langendorff perfusion system, hearts were perfused with control solution for 10 min to stabilize their activities. Electrical activity of the upper part of the right ventricle was assessed using a 64-electrode array (0.2-mm electrode diameter; 0.36-mm interelectrode distance) connected to an EMS64-USB-1002 amplifier. Single-lead ECG was acquired to monitor global cardiac electrical activity. Data were sampled at 10 kHz per channel and acquired by EMapRecord5 (Mappinglab, Oxford, UK). Data were obtained at baseline (2 min before compound perfusion) and during AaH-II* perfusion for 10 min at various concentrations. Data were analysed using EMapScope5 (Mappinglab, Oxford, UK). Activation times were determined as the point of maximal negative slope. All activation times were related to the timing of the first detected waveform and then used to draw activation maps. An average of three complexes was used for activation time and conduction velocity analyses, while interbeat interval was measured as the average of 10 consecutive intervals. The index of inhomogeneity was calculated as previously described.[23] Arrhythmias were quantified over a period of 2 min in control and after peptide perfusion.

[7] = in vivo; settings: Wistar-Han, rat, iv
[8] = representative traces, test 0 mV

Sequence of hNav1.3 (Q9NY46 other isoform, or with tags, fused parts or gaps): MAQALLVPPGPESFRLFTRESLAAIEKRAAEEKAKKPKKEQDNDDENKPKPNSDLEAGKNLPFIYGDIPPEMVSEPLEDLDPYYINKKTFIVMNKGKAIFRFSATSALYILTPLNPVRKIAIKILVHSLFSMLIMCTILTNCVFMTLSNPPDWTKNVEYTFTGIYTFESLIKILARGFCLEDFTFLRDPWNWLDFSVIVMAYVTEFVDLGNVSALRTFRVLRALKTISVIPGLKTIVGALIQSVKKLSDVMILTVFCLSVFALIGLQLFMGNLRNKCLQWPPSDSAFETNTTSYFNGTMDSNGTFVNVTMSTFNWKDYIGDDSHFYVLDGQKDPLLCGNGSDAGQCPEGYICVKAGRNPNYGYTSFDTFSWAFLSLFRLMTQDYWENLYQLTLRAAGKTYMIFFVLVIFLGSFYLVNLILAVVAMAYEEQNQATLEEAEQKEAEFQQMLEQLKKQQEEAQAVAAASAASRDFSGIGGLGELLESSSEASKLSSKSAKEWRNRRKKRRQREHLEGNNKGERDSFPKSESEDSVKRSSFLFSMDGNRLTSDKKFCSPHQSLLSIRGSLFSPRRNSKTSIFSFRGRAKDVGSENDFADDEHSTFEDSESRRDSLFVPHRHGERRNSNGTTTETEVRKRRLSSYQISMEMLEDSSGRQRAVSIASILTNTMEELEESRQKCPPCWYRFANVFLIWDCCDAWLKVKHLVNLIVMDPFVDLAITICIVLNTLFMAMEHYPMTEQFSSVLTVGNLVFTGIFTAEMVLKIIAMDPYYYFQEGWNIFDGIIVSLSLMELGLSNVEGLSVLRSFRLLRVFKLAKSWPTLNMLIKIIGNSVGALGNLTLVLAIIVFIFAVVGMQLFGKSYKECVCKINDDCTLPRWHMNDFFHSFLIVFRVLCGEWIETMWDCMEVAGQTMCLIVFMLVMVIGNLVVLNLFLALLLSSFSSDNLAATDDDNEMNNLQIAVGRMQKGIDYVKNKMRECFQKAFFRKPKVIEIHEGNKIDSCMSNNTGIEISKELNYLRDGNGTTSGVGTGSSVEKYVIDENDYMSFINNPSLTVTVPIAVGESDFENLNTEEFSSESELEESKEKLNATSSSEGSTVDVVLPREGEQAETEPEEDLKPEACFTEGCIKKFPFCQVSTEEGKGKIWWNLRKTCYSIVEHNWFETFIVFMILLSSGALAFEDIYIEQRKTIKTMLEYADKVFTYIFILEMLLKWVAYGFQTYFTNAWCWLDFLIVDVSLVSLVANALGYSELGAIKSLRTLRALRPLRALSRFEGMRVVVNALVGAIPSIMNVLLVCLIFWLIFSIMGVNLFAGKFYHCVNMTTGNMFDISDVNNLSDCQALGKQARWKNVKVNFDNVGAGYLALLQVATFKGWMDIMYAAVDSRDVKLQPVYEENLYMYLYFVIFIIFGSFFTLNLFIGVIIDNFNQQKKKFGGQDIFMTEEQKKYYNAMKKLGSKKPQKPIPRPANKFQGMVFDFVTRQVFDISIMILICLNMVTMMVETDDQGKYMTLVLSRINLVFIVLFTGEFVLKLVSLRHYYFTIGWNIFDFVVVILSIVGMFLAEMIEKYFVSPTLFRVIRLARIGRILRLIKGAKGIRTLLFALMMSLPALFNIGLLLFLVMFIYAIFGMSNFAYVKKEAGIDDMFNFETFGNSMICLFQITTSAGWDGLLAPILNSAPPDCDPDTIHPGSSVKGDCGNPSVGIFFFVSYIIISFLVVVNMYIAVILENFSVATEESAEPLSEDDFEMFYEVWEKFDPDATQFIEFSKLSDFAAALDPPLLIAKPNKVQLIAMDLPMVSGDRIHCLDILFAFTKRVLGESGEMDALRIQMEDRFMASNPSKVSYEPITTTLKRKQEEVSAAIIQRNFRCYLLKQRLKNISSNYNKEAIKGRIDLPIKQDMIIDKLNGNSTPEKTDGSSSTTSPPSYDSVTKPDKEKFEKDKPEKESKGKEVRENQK
Sequence of hNav1.4 (P35499 whole entry): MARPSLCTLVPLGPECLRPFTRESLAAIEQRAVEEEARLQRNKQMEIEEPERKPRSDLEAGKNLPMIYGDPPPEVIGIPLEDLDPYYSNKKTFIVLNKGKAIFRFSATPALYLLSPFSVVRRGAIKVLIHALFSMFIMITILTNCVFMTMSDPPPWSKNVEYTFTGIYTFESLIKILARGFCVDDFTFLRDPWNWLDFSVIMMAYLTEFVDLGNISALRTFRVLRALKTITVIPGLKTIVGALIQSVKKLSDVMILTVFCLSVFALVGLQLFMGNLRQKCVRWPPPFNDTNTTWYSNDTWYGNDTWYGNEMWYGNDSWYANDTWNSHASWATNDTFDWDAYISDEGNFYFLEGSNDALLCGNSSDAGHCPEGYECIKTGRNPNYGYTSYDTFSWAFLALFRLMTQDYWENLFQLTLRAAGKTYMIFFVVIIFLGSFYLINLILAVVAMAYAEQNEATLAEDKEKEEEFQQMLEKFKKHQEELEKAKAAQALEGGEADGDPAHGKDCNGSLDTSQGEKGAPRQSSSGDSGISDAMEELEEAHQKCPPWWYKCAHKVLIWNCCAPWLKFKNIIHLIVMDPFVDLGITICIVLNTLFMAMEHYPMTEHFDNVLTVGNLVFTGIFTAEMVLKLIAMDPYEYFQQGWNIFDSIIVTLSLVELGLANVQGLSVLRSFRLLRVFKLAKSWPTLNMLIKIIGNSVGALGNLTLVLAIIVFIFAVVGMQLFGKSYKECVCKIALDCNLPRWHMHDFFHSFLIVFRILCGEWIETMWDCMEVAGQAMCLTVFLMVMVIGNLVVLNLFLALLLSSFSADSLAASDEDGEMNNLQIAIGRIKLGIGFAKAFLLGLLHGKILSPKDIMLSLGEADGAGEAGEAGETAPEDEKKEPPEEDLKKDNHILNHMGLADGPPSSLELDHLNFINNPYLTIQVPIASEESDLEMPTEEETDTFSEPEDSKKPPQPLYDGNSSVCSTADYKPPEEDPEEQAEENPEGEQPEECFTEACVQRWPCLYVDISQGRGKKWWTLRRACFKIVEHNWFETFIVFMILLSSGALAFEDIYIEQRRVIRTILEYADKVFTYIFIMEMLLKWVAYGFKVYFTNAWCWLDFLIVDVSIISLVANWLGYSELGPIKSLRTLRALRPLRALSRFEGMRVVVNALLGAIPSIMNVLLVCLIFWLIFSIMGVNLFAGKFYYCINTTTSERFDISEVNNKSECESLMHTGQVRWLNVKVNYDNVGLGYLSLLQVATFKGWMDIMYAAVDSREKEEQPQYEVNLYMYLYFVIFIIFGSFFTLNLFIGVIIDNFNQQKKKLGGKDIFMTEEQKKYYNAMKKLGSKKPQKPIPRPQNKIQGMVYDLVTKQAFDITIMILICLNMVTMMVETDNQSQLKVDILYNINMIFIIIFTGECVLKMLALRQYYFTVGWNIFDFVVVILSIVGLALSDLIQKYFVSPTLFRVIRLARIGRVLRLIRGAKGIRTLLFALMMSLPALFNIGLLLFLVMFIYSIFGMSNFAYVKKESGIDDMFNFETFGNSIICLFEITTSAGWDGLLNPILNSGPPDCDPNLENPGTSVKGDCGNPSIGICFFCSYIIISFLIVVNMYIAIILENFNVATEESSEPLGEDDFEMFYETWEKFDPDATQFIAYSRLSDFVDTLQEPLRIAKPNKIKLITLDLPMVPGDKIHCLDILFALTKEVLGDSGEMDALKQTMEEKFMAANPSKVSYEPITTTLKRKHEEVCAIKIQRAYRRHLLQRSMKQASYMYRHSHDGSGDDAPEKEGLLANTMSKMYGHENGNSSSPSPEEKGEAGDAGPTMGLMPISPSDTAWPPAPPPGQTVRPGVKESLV

SMILES: CC[C@H](C)[C@H](NC(=O)[C@H](Cc1ccc(O)cc1)NC(=O)CNC(=O)[C@H](CC(=O)O)NC(=O)[C@H](CCCCN)NC(=O)[C@@H](N)C(C)C)C(=O)N[C@H](C(=O)N[C@@H](CC(=O)O)C(=O)N[C@@H](CC(=O)O)C(=O)N[C@H](C(=O)N[C@@H](CC(N)=O)C(=O)N[C@H]1CSSC[C@@H](C(=O)N[C@@H](Cc2c[nH]cn2)C(N)=O)NC(=O)[C@H](CCCCN)NC(=O)CNC(=O)[C@@H]2CCCN2C(=O)CNC(=O)[C@H](CCCCN)NC(=O)[C@H]([C@@H](C)O)NC(=O)[C@H](CCCNC(=N)N)NC(=O)[C@H](C(C)C)NC(=O)[C@H](Cc2c[nH]cn2)NC(=O)[C@H](CC(=O)O)NC(=O)[C@@H]2CCCN2C(=O)[C@H](CC(C)C)NC(=O)[C@H](CCCCN)NC(=O)[C@H](Cc2ccc(O)cc2)NC(=O)[C@@H]2CSSC[C@@H]3NC(=O)[C@H](CCC(=O)O)NC(=O)[C@H](CCC(=O)O)NC(=O)[C@H](CC(N)=O)NC(=O)[C@@H]4CSSC[C@H](NC(=O)[C@H](C)NC(=O)[C@H](CC(N)=O)NC(=O)CNC(=O)[C@H](Cc5ccc(O)cc5)NC(=O)[C@@H]5CCCN5C(=O)[C@H](CO)NC(=O)[C@H](C)NC(=O)[C@H](Cc5c[nH]c6ccccc56)NC(=O)[C@H](CCC(N)=O)NC(=O)[C@H](CSSC[C@H](NC(=O)[C@H](Cc5ccccc5)NC(=O)[C@H](Cc5ccc(O)cc5)NC(=O)[C@H]([C@@H](C)O)NC1=O)C(=O)NCC(=O)N[C@@H](CCCNC(=N)N)C(=O)N[C@@H](CC(N)=O)C(=O)N[C@@H](C)C(=O)N[C@@H](Cc1ccc(O)cc1)C(=O)N4)NC(=O)[C@H](Cc1ccc(O)cc1)NC(=O)CNC(=O)[C@H](CO)NC(=O)[C@H](CCC(=O)O)NC(=O)CNC(=O)[C@H](CCCCN)NC(=O)[C@H](CC(C)C)NC(=O)[C@H](CCCCN)NC(=O)[C@H]([C@@H](C)O)NC3=O)C(=O)N[C@@H](Cc1ccc(O)cc1)C(=O)N2)C(C)C)C(C)C [AaH-II*]
- hNav1.2 peak current inhibition ([1]; above 1 nM): not observed
- INaL after 1 s depolarization ([1]; hNav1.2, 10 nM): significant INaL current at 1 s depolarization
- shift in voltage-dependence of activation ([1]; hNav1.2, 10 nM): lacked a significant shift in voltage-dependence of activation
- concentration at which INaL is triggered / becomes noticeable ([1]; hNav1.2, representative traces, test 0 mV): 0.1 nM
- INaL after 1 s depolarization ([2]; 10 nM): maintained INaL after 1 s pulse
- shift in voltage-dependence of activation ([2]; 10 nM): large AaH-II*-triggered hyperpolarizing shift in voltage-dependence of activation
- concentration at which INaL is triggered / becomes noticeable [2, 8]: 0.1 nM
- INaL after 1 s depolarization ([3]; 10 nM): lack of effects of AaH-II* on those two parameters
- shift in voltage-dependence of activation ([3]; 10 nM): lack of effects of AaH-II* on those two parameters
- maximal INaL stimulation (maximal AUC) ([3]; highest effective AaH-II* concentration): six
- concentration at which INaL is triggered / becomes noticeable [3, 8]: 0.3 nM
- INaL after 1 s depolarization ([4]; 10 nM): lacked sufficient INaL at 1 s depolarization
- shift in voltage-dependence of activation ([4]; 10 nM): AaH-II*-mediated shift in voltage-dependence of activation
- concentration at which INaL is triggered / becomes noticeable [4, 8]: 1 nM
- effect on peak current amplitude or INaL measured at 1 sec depolarization [5]: absence of effect
- increase in repolarization area of ventricular local field potential ([6]; 0.1 nM): 40.3 ± 8.0%
- arrhythmogenic hearts (hearts with arrhythmias / hearts) ([6]; 1 nM AaH-II*): 5/7
- increase in repolarization area of ventricular local field potential ([6]; 1 nM): 140.6 ± 43.0%
- activation time ([6]; 10 nM): significantly increases activation time
- arrhythmogenic hearts (hearts with arrhythmias / hearts) ([6]; 10 nM AaH-II*): 6/7
- ventricular bradycardia (rhythm reduction) ([6]; 10 nM, MEA on right ventricle, 10 min perfusion): 1.9 fold
- cardiac conduction in the right ventricle ([6]; 0.1 and 1 nM): do not affect conduction
- ventricular interbeat interval ([6]; 0.1 and 1 nM, MEA on right ventricle, 10 min perfusion): no effect on the interbeat interval
- level at time molar ([7]; 3 ug/kg): < 0.1 nM
- level at time molar ([7]; 15 ug/kg): 2.4 ± 0.4 nM
- level at time molar ([7]; 30 ug/kg): 4.3 ± 0.6 nM
